# Laboratory results: patent US20100022509A1, “Inhibitors of MshC and Homologs Thereof, and Methods of Identifying Same” (priority 2006, published 2010)
# Read-outs that look alike come from different tables or passages of the source.
# Key:
# Assay type in all cases: biochemical, M. tuberculosis
# MshC [1] = molecular target: T1, MshC (Mycobacterium tuberculosis, UniProt P9WJM9); assay: biochemical
# T1 sequence (P9WJM9 1-414): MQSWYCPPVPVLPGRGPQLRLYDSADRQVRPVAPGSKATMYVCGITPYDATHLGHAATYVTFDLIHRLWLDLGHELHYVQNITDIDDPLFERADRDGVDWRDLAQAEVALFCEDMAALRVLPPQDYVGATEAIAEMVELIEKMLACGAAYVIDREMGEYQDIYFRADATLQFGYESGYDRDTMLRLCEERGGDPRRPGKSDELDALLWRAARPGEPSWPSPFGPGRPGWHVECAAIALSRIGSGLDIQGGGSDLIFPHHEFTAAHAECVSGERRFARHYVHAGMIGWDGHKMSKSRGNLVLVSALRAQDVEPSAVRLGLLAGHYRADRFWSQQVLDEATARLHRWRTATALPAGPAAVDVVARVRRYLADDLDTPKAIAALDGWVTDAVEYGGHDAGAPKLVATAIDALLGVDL
# MshC [2] = molecular target: T1, MshC; assay: Inhibition studies of MshC ligase activity (HEPES pH 7.5, HPLC); settings: for % inhibition: 50 μM GlcN-Ins and 70 μM Cys
# MshC [3] = molecular target: T1, MshC; settings: for activity as alternative substrate to Cys, in words: 80 μM to 1.6 mM
# [4] = 80-1600 μM, 70 μM L-Cys and 50 μM GlcN-Ins
smiles,measurement,setting,value
O=C(NCCCN1CCOCC1)c1ccc2c(c1)N(Cc1cccc(Cl)c1)C(=O)c1ccccc1S2 [Inhibitor 1937],"inhibition of MshC in words, 1,3-diaminopropyl residue with remote amino residue capable of protonation",MshC [1],measurable inhibition
same,"inhibition of MshC in words, Z is a benzyl moiety bearing one or more halogens",MshC [1],Measurable inhibition
same,IC50,"MshC [1]; IC50, μM",780 ± 120 µM
same,"inhibition of MshC in words, compounds grouped by X","MshC [1]; X=S, X=SO, X=SO2",Significant inhibition
CN(CCCNC(=O)c1ccc2c(c1)N(Cc1cccc(Cl)c1)C(=O)c1ccccc1[S+]2[O-])C1CCCCC1 (stereo not drawn) [Inhibitor 1938],"inhibition of MshC in words, 1,3-diaminopropyl residue with remote amino residue capable of protonation",MshC [1],measurable inhibition
same,"inhibition of MshC in words, Z is a benzyl moiety bearing one or more halogens",MshC [1],Measurable inhibition
same,IC50,"MshC [1]; IC50, μM",102 ± 4 µM
same,"inhibition of MshC in words, compounds grouped by X","MshC [1]; X=S, X=SO, X=SO2",Significant inhibition
CCOCCCNC(=O)c1ccc2c(c1)N(Cc1cccc(Cl)c1)C(=O)c1ccccc1[S+]2[O-] (stereo not drawn) [Inhibitor 1939],"inhibition of MshC in words, compounds lacking the basic amino group or with groups in excess of 10 carbons on the remote amino residue",MshC [1],little or no inhibition
same,IC50,"MshC [1]; IC50, μM",3200 ± 1000 µM
CCCCN(CCCNC(=O)c1ccc2c(c1)N(Cc1cccc(Cl)c1)C(=O)c1ccccc1[S+]2[O-])Cc1ccccc1 (stereo not drawn) [Inhibitor 1940],"inhibition of MshC in words, compounds lacking the basic amino group or with groups in excess of 10 carbons on the remote amino residue",MshC [1],little or no inhibition
same,IC50,"MshC [1]; IC50, μM",> 3000 µM
CN(CCc1ccccc1)C(=O)c1ccc2c(c1)N(Cc1cccc(Cl)c1)C(=O)c1ccccc1S2(=O)=O [Inhibitor 1943],IC50,"MshC [1]; IC50, μM",> 3000 µM
O=C(NCC1CCCN1)c1ccc2c(c1)N(Cc1cccc(Cl)c1)C(=O)c1ccccc1S2(=O)=O (stereo not drawn) [Inhibitor 1947],"inhibition of MshC in words, Z is a benzyl moiety bearing one or more halogens",MshC [1],Measurable inhibition
same,"inhibition of MshC in words, compounds grouped by X",MshC [1],Significant inhibition
same,IC50,"MshC [1]; IC50, μM",2300 ± 300 µM
O=C(NCCCN1CCC(Cc2ccccc2)CC1)c1ccc2c(c1)N(Cc1cccc(Cl)c1)C(=O)c1ccccc1S2(=O)=O [Inhibitor 1949],"inhibition of MshC in words, compounds lacking the basic amino group or with groups in excess of 10 carbons on the remote amino residue",MshC [1],little or no inhibition
same,IC50,"MshC [1]; IC50, μM",> 3000 µM
CCC1CCCCN1CCCNC(=O)c1ccc2c(c1)N(Cc1cccc(Cl)c1)C(=O)c1ccccc1S2(=O)=O (stereo not drawn) [Inhibitor 1954],"inhibition of MshC in words, 1,3-diaminopropyl residue with remote amino residue capable of protonation",MshC [1],measurable inhibition
same,"inhibition of MshC in words, Z is a benzyl moiety bearing one or more halogens",MshC [1],Measurable inhibition
same,IC50,"MshC [1]; IC50, μM",1100 ± 200 µM
same,"inhibition of MshC in words, compounds grouped by X","MshC [1]; X=S, X=SO, X=SO2",Significant inhibition
O=C(NCCCSC1CCCCC1)c1ccc2c(c1)N(Cc1cccc(Cl)c1)C(=O)c1ccccc1S2(=O)=O [Inhibitor 1964],"inhibition of MshC in words, compounds lacking the basic amino group or with groups in excess of 10 carbons on the remote amino residue",MshC [1],little or no inhibition
same,IC50,"MshC [1]; IC50, μM",> 3000 µM
CCCCN(C)CCCNC(=O)c1ccc2c(c1)N(Cc1cccc(Cl)c1)C(=O)c1ccccc1S2(=O)=O [Inhibitor 1965],"inhibition of MshC in words, 1,3-diaminopropyl residue with remote amino residue capable of protonation",MshC [1],measurable inhibition
same,"inhibition of MshC in words, Z is a benzyl moiety bearing one or more halogens",MshC [1],Measurable inhibition
same,IC50,"MshC [1]; IC50, μM",1700 ± 300 µM
same,"inhibition of MshC in words, compounds grouped by X","MshC [1]; X=S, X=SO, X=SO2",Significant inhibition
CCN(C(=O)c1ccc2c(c1)N(Cc1cccc(Cl)c1)C(=O)c1ccccc1S2(=O)=O)c1ccccc1 [Inhibitor 1966],IC50,"MshC [1]; IC50, μM",> 3000 µM
COC(=O)c1cc2c(cc1NC(=O)c1ccc3c(c1)N(Cc1cccc(Cl)c1)C(=O)c1ccccc1[S+]3[O-])OCCO2 (stereo not drawn) [Inhibitor 1984],IC50,"MshC [1]; IC50, μM",> 3000 µM
COC(=O)c1cc(NC(=O)c2ccc3c(c2)N(Cc2cccc(Cl)c2)C(=O)c2ccccc2[S+]3[O-])cc(C(=O)OC)c1 (stereo not drawn) [Inhibitor 1986],IC50,"MshC [1]; IC50, μM",> 3000 µM
C[C@H](N)C(=O)O [L-alanine],"inhibition of the ligase activity, in words",MshC [2]; [4],very minor inhibition
same,% inhibition,MshC [2]; [inhibitor] 5000 μM,4 ± 8%
same,relative spec. act.,MshC [3],≦0.016
same,"activity as alternative substrate to Cys, in words",MshC [3],Nor was significant activity detected
N[C@@H](CCS)C(=O)O [L-homocysteine],"inhibition of the ligase activity, in words",MshC [2]; [4],very minor inhibition
same,% inhibition,MshC [2]; [inhibitor] 1600 μM,0 ± 5%
same,relative spec. act.,MshC [3],≦0.2
same,"activity as alternative substrate to Cys, in words",MshC [3],Nor was significant activity detected
CC[C@H](N)C(=O)O [L-α-aminobutyric acid],"inhibition of the ligase activity, in words",MshC [2]; [4],very minor inhibition
"CC(=O)N[C@@H](CS)C(=O)N[C@H]1[C@@H](OC2[C@H](O)[C@H](O)C(O)[C@H](O)[C@H]2O)O[C@H](CO)[C@@H](O)[C@@H]1O (stereo partly drawn) [MSH, 1-D-myo-inosityl 2-(N-acetyl-L-cysteinyl)amido-2-deoxy-α-D-glucopyranoside]","inhibition of the ligase activity, in words","MshC [2]; 1 and 5 mM, physiologic levels",minimal inhibition
same,% inhibition,MshC [2]; [inhibitor] 1000 μM,4 ± 3%
same,% inhibition,MshC [2]; [inhibitor] 5000 μM,7 ± 5%
CN(CCCNC(=O)c1ccc2c(c1)N(Cc1cccc(Cl)c1)C(=O)c1ccccc1[S+]2[O-])C1CCCCC1 (stereo not drawn) [NTF1836],IC50,"MshC [1]; 50, 100 and 200 μM in 0.005% Triton X-100, reciprocal plot of velocity versus inhibitor concentration, read-out: IC50",~100 µM
same,IC50,MshC [1]; read-out: IC50 for MshC activity in an vitro enzyme assay,100 µM
